According to patent US20250296934A1, “AZEPINOINDOLES AND METHODS OF PREPARATION THEREOF” (priority 2022, published 2025):
Where two headings read alike, the source gives them in different places.

Legend:
5-HT6 = 5-HT6 (Homo sapiens, UniProt P50406); experiment: 5-HT receptor activity (Table 3), 5-HT6; assay type: cell-based
mice = experiment: Head Twitch Response (HTR) in mice; assay type: in vivo; conditions: Mus musculus, 1 h, measured over a 60 minute interval
Procedure: Head Twitch Response (HTR) was assessed using a head-mounted neodymium magnet and a magnetometer detection coil, as described in Halberstadt et al., Psychopharmacology (Berl.), 2013, 227 (4): 727-739. Table 8 below summarizes the ED50 in head twitch (as measured over a 60 minute interval) in mice as a result of Compound 1 as compared to psilocybin.

5-HT2B = 5-HT2B (Homo sapiens, UniProt P41595); experiment: 5-HT2B Gq dissociation BRET functional assay; assay type: cell-based; set-up: expressed in transfected cells; host or cells: HEK293T
5-HT2A [1] = biological target: T1, 5-HT2A (Homo sapiens, UniProt P28223); experiment: 5-HT receptor activity (Table 3), 5-HT2A; assay type: cell-based
5-HT5A = 5-HT5A (Homo sapiens, UniProt P47898); experiment: 5-HT receptor activity (Table 3), 5-HT5A; assay type: cell-based
hepatocyte [2] = experiment: In vitro hepatocyte clearance, mouse; assay type: in vitro ADME; conditions: Mouse
Procedure: (§1) Additional experimentation was performed on compounds 1, W5, and A93. Table 6a, 6b and 6c summarize, among other things, the anticipated hepatic clearance of compounds 1, W5 and A93 respectively, in various species, as specified in Table 6a, 6b and 6c and as determined by calculating the in vitro hepatocyte clearance over time and scaling such rate with such species' hepatocyte count and the anticipated liver blood flow rate in such species.

5-HT7 = 5-HT7 (Homo sapiens, UniProt P34969); experiment: 5-HT receptor activity (Table 3), 5-HT7; assay type: cell-based
5-HT2C = biological target: T2, 5-HT2C (Homo sapiens, UniProt P28335); experiment: cell-based; conditions: Table 3
T2 sequence (P28335 33-458): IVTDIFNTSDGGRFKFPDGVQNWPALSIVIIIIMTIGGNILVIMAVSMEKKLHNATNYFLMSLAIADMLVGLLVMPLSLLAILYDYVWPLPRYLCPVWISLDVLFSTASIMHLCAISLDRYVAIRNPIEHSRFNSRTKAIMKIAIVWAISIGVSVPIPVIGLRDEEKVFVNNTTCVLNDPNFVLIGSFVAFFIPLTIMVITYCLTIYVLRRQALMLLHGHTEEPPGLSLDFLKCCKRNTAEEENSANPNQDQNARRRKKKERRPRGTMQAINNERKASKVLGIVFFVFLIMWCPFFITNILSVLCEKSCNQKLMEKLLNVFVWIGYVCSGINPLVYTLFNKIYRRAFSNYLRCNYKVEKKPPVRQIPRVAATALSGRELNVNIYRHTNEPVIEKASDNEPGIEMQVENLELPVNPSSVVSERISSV

[3] = In vitro hepatocyte clearance, rat; assay type: in vitro ADME
Procedure: as §1

hepatocyte [4] = experiment: In vitro hepatocyte clearance, rat; assay type: in vitro ADME; conditions: Rat
Procedure: as §1

[5] = In vitro hepatocyte clearance, dog; assay type: in vitro ADME
Procedure: as §1

hepatocyte [6] = experiment: In vitro hepatocyte clearance, dog; assay type: in vitro ADME; conditions: Dog
Procedure: as §1

[7] = In vitro hepatocyte clearance, monkey; assay type: in vitro ADME; conditions: Monkey hepatocytes
Procedure: as §1

hepatocyte [8] = experiment: In vitro hepatocyte clearance, monkey; assay type: in vitro ADME; conditions: Monkey
Procedure: as §1

[9] = In vitro hepatocyte clearance, human; assay type: in vitro ADME; conditions: Human hepatocytes
Procedure: as §1

hepatocyte [10] = experiment: In vitro hepatocyte clearance, human; assay type: in vitro ADME; conditions: Human
Procedure: as §1

5-HT1E = 5-HT1E (Homo sapiens, UniProt P28566); experiment: 5-HT receptor activity (Table 3), 5-HT1E; assay type: cell-based
5-HT1D = 5-HT1D (Homo sapiens, UniProt P28221); experiment: 5-HT receptor activity (Table 3), 5-HT1D; assay type: cell-based
5-HT2A [11] = biological target: T1, 5-HT2A; experiment: 5-HT2A Gq dissociation BRET functional assay; assay type: cell-based; set-up: expressed in transfected cells; host or cells: HEK293T
[12] = normalized to % 5-HT stimulation

T1 sequence (P28223 whole entry): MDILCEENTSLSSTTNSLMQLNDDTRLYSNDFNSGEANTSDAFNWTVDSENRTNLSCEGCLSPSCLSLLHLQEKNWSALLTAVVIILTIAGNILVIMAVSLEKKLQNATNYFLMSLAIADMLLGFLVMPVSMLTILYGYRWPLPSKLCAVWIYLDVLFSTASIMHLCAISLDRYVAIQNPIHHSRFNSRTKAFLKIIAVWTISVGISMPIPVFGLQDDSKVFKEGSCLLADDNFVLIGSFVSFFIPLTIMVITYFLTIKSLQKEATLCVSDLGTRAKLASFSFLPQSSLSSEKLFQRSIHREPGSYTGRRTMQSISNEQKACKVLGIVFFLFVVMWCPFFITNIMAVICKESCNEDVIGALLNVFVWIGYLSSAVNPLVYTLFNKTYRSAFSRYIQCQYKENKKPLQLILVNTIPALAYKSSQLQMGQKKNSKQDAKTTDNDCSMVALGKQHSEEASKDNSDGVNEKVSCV
5-HT6, sequence (P50406 whole entry, species assumed): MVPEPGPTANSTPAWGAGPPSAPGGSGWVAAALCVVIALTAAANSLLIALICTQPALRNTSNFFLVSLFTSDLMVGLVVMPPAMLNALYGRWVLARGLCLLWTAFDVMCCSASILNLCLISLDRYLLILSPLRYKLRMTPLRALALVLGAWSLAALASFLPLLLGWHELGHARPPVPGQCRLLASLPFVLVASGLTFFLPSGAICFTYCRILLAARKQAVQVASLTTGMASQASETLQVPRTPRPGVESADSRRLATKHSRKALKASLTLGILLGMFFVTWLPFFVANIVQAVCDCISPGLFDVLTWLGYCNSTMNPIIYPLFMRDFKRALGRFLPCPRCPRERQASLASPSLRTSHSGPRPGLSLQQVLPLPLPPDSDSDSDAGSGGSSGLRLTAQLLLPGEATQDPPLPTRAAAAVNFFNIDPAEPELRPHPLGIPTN
5-HT1D, sequence (P28221 whole entry, species assumed): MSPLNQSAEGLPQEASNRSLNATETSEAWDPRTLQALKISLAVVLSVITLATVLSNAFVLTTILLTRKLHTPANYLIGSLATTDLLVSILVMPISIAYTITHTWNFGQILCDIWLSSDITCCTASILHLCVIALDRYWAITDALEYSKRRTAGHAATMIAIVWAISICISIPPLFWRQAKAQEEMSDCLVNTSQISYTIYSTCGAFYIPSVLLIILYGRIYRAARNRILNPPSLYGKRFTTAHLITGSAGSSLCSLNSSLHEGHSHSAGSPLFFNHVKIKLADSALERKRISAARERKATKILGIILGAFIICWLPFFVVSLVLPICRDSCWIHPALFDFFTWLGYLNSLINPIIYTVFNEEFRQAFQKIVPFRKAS
5-HT1E, sequence (P28566 whole entry, species assumed): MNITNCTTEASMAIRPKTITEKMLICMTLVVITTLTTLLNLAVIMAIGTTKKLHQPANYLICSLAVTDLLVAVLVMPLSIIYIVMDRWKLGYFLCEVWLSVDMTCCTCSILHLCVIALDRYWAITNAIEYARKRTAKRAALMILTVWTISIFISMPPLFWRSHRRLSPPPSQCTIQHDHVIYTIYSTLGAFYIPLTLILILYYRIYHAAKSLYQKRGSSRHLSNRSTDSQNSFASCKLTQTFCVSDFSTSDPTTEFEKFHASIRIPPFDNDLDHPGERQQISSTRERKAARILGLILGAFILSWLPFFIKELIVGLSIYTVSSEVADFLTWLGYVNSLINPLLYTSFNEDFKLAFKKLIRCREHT
5-HT2B, sequence (P41595 whole entry): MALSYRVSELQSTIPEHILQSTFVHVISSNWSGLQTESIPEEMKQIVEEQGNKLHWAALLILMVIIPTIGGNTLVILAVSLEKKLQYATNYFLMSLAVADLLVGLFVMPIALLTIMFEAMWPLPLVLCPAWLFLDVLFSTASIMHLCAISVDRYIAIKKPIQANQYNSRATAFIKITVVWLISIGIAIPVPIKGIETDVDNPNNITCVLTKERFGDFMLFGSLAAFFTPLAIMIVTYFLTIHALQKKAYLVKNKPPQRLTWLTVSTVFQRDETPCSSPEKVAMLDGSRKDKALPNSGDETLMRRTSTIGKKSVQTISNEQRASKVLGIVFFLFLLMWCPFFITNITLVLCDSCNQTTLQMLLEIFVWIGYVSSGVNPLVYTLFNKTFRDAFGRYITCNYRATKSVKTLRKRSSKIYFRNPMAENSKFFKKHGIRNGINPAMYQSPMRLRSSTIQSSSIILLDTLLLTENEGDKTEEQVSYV
5-HT7, sequence (P34969 whole entry, species assumed): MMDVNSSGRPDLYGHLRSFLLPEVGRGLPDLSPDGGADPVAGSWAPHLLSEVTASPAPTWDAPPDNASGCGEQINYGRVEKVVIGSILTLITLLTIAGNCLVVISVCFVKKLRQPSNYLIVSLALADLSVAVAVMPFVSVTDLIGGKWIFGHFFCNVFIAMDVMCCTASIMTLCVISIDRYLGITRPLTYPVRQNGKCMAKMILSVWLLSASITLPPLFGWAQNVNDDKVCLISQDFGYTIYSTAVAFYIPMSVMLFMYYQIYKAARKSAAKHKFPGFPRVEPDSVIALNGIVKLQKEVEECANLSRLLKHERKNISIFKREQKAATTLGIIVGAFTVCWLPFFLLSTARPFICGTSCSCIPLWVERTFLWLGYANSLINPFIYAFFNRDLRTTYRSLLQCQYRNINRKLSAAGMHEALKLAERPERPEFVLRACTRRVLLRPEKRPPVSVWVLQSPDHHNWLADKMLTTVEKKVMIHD
5-HT5A, sequence (P47898 whole entry, species assumed): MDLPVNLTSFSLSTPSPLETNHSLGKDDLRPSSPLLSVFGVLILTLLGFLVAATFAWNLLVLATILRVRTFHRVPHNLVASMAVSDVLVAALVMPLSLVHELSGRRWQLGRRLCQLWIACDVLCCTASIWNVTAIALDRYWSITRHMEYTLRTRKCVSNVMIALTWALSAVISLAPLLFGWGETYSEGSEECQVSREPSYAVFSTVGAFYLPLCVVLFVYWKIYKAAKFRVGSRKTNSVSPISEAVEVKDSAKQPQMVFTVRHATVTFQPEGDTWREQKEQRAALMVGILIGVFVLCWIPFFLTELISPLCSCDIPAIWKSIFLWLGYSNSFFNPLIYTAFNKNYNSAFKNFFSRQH

Cc1ccc(O)c2c3c([nH]c12)CCNCC3 [Cpd #1 (Pharm-136), 7-Methyl-1,2,3,4,5,6-hexahydroazepino[4,5-b]indol-10-ol]
EC50 (5-HT6): 53.2 nM
Eff (5-HT6): 55%
ED50 (mice): 3.6 mg/kg
EC50 (5-HT2B): 3.5 nM
5-HT2B BRET Eff (5-HT2B; [12]): 52%
EC50 (5-HT2A [1]): 0.5 nM
Eff (5-HT2A [1]; 5-HT2A, Table 3): 101%
EC50 (5-HT5A): Not active
Hepatic Extraction Ratio (E) (hepatocyte [2]): 0.81
Predicted hepatic CL (hepatocyte [2]): 73.10 mL/min/kg
EC50 (5-HT7): Not active
Count (n. of wells) (TA1535; TA1535 + S9, 1.0E−04M): 0 n. of wells
Significance (TA1535; TA1535 + S9, 1.0E−04M): Negative
Count (n. of wells) (TA1535; TA1535 + S9, 1.0E−05M): 0 n. of wells
Significance (TA1535; TA1535 + S9, 1.0E−05M): Negative
Count (n. of wells) (TA1535; TA1535 + S9, 5.0E−05M): 0 n. of wells
Significance (TA1535; TA1535 + S9, 5.0E−05M): Negative
Count (n. of wells) (TA1535; TA1535 + S9, 5.0E−06M): 0 n. of wells
Significance (TA1535; TA1535 + S9, 5.0E−06M): Negative
Count (n. of wells) (TA1535; TA1535 − S9, 1.0E−04M): 0 n. of wells
Significance (TA1535; TA1535 − S9, 1.0E−04M): Negative
Count (n. of wells) (TA1535; TA1535 − S9, 1.0E−05M): 0 n. of wells
Significance (TA1535; TA1535 − S9, 1.0E−05M): Negative
Count (n. of wells) (TA1535; TA1535 − S9, 5.0E−05M): 0 n. of wells
Significance (TA1535; TA1535 − S9, 5.0E−05M): Negative
Count (n. of wells) (TA1535; TA1535 − S9, 5.0E−06M): 0 n. of wells
Significance (TA1535; TA1535 − S9, 5.0E−06M): Negative
EC50 (5-HT2C): 0.5 nM
Eff (5-HT2C): 95%
Count (n. of wells) (TA100; TA100 + S9, 1.0E−04M): 0 n. of wells
Significance (TA100; TA100 + S9, 1.0E−04M): Negative
Count (n. of wells) (TA100; TA100 + S9, 1.0E−05M): 8 n. of wells
Significance (TA100; TA100 + S9, 1.0E−05M): Negative
Count (n. of wells) (TA100; TA100 + S9, 5.0E−05M): 1 n. of wells
Significance (TA100; TA100 + S9, 5.0E−05M): Negative
Count (n. of wells) (TA100; TA100 + S9, 5.0E−06M): 13 n. of wells
Significance (TA100; TA100 + S9, 5.0E−06M): Negative
Count (n. of wells) (TA100; TA100 − S9, 1.0E−04M): 0 n. of wells
Significance (TA100; TA100 − S9, 1.0E−04M): Negative
Count (n. of wells) (TA100; TA100 − S9, 1.0E−05M): 1 n. of wells
Significance (TA100; TA100 − S9, 1.0E−05M): Negative
Count (n. of wells) (TA100; TA100 − S9, 5.0E−05M): 0 n. of wells
Significance (TA100; TA100 − S9, 5.0E−05M): Negative
Count (n. of wells) (TA100; TA100 − S9, 5.0E−06M): 2 n. of wells
Significance (TA100; TA100 − S9, 5.0E−06M): Negative
hepatocyte CLint ([3]; Rat hepatocytes): 5.43 µL/min/1e6 cells
half-life ([3]; Rat hepatocytes, read-out: In vitro T1/2): 4.26 h
CLint scaled ([3]; rat, hepatocytes, read-out: Scale-up Clint): 25.4 mL/min/kg
Hepatic Extraction Ratio (E) (hepatocyte [4]): 0.32
Predicted hepatic CL (hepatocyte [4]): 17.41 mL/min/kg
hepatocyte CLint ([5]; Dog hepatocytes): < 2.71 µL/min/1e6 cells
half-life ([5]; Dog hepatocytes, read-out: In vitro T1/2): > 8.53 h
CLint scaled ([5]; dog, hepatocytes, read-out: Scale-up Clint): < 18.6 mL/min/kg
Hepatic Extraction Ratio (E) (hepatocyte [6]): <0.38
Predicted hepatic CL (hepatocyte [6]): <11.62 mL/min/kg
hepatocyte CLint [7]: < 2.71 µL/min/1e6 cells
half-life ([7]; read-out: In vitro T1/2): > 8.53 h
CLint scaled ([7]; read-out: Scale-up Clint): < 9.75 mL/min/kg
Hepatic Extraction Ratio (E) (hepatocyte [8]): <0.18
Predicted hepatic CL (hepatocyte [8]): <7.97 mL/min/kg
hepatocyte CLint [9]: < 2.71 µL/min/1e6 cells
half-life ([9]; read-out: In vitro T1/2): > 8.53 h
CLint scaled ([9]; read-out: Scale-up Clint): < 6.89 mL/min/kg
Hepatic Extraction Ratio (E) (hepatocyte [10]): <0.25
Predicted hepatic CL (hepatocyte [10]): <5.17 mL/min/kg
EC50 (5-HT1E): 966 nM
Eff (5-HT1E): 94%
EC50 (5-HT1D): 326 nM
Eff (5-HT1D): 72%
EC50 (5-HT2A [11]): 0.6 nM
5-HT2A BRET Eff (5-HT2A [11]; [12]): 102%
